Test results published in US7265152B2 (ViroPharma Incorporated, priority 2002, dated 2007).

Molecular target: T1, HCV NS5B (Hepatitis C virus genotype 1b, UniProt Q9WMX2)
T1 construct: fusion protein, of which the carboxyl terminal 21 amino acids were removed to enhance its solubility; His tag (GSHHHHHH); made in house; host or cells: E. coli
Assay: Inhibition of viral RNA-dependent RNA polymerase (RdRp), in vitro biochemical assay
Design: species or system HCV genotype 1b virus (BB7)
Conditions: HCV NS5B RdRp, BB7; reported as range class; read-out: HCV pol-BB7 IC50
Source text: The HCV NS5B-directed RdRp activity was established and characterized in a standard in vitro biochemical assay using a purified HCV NS5B protein derived from the consensus sequence of a patient infected with HCV genotype 1b virus (BB7). (See Blight K J et al., Science. 2000, 290:1972-4). The NS5B consensus sequence was cloned and expressed in E. coli as a histidine tagged (GSHHHHHH) fusion protein, of which the carboxyl terminal 21 amino acids were removed to enhance its solubility.
In addition to evaluating their activity in the replicon assay, representative compounds within the scope of the present invention, as shown in examples 1-453 of Table 1, were also evaluated for antiviral activity using this assay. A measure of the inhibitory activity of compounds of the invention may be expressed as IC50 values. IC50 values represent the concentration of the compound at which 50% of the RdRp activity is inhibited. […] These low concentrations of test compounds required to achieve 50% inhibition of the RdRp activity indicate that the compounds of the invention are effective at inhibiting RNA synthesis by viral RdRp enzymes.

| Structure (SMILES) | IC50 [nM] |
| --- | --- |
| CNC(=O)c1c(-c2ccc(F)cc2)oc2cc(OCc3ccccc3)c(OC(C)C)cc12 [Example 194, 6-Benzyloxy-2-(4-fluoro-phenyl)-5-isopropoxy-benzofuran-3-carboxylic acid methylamide] | 500 to 5000 |

Same assay, conditions: HCV NS5B RdRp, BB7 genotype 1b; read-out: HCV pol-BB7 IC50

| Structure (SMILES) | IC50 [nM] |
| --- | --- |
| CNC(=O)c1c(-c2ccc(F)cc2)oc2cc(Nc3cc(C)nn3C)c(OC(C)C)cc12 [Example 127, 6-(2,5-Dimethyl-2H-pyrazol-3-ylamino)-2-(4-fluoro-phenyl)-5-isopropoxy-benzofuran-3-carboxylic acid methylamide] | 5000 to 30000 |
| CNC(=O)c1c(-c2ccc(F)cc2)oc2cc(N3CCOCC3)c(OCc3ccncc3)cc12 [Example 128, 2-(4-Fluoro-phenyl)-6-morpholin-4-yl-5-(pyridin-4-ylmethoxy)-benzofuran-3-carboxylic acid methylamide] | ≤ 500 |
| CNC(=O)c1c(-c2ccc(F)cc2)oc2cc(C#N)c(OC(C)C)cc12 [Example 129, 6-Cyano-2-(4-fluoro-phenyl)-5-isopropoxy-benzofuran-3-carboxylic acid methylamide] | ≤ 500 |

Same assay, conditions: HCV NS5B polymerase, BB7 (genotype 1b); values given as range classes A-D; read-out: HCV pol-BB7 IC50

| Structure (SMILES) | IC50 [nM] |
| --- | --- |
| CNC(=O)c1c(-c2ccc(F)cc2)oc2cc(N(C)S(C)(=O)=O)c(OCc3nccn3Cc3ccccc3)cc12 [Example 399, 5-(1-Benzyl-1H-imidazol-2-ylmethoxy)-2-(4-fluoro-phenyl)-6-(methanesulfonyl-methyl-amino)-benzofuran-3-carboxylic acid methylamide] | ≤ 500 |
| CNC(=O)c1c(-c2ccc(F)cc2F)oc2cc(-c3c(C)noc3C)c(OC)cc12 [Example 400, 2-(2,4-Difluoro-phenyl)-6-(3,5-dimethyl-isoxazol-4-yl)-5-methoxy-benzofuran-3-carboxylic acid methylamide] | ≤ 500 |
| CNC(=O)c1c(-c2ccc(F)cc2)oc2cc(C(C)=O)ccc12 [Example 411, 6-Acetyl-2-(4-fluoro-phenyl)-benzofuran-3-carboxylic acid methylamide] | 500 to 5000 |
| CNC(=O)c1c(-c2ccc(F)cc2)oc2cc(N(C)S(C)(=O)=O)c(OCC(C)(C)O)cc12 [Example 412, 2-(4-Fluoro-phenyl)-5-(2-hydroxy-2-methyl-propoxy)-6-(methanesulfonyl-methyl-amino)-benzofuran-3-carboxylic acid methylamide] | ≤ 500 |
| CCN(CC)C(=O)COc1cc2c(C(=O)NC)c(-c3ccc(F)cc3)oc2cc1N(C)S(C)(=O)=O [Example 413, 5-Diethylcarbamoyl-methoxy-2-(4-fluoro-phenyl)-6-(methanesulfonyl-methyl-amino)-benzofuran-3-carboxylic acid methylamide] | ≤ 500 |
| CCOc1cc2c(C(=O)NC)c(-c3ccc(F)cc3)oc2cc1-c1c(C)noc1C [Example 414, 6-(3,5-Dimethyl-isoxazol-4-yl)-5-ethoxy-2-(4-fluoro-phenyl)-benzofuran-3-carboxylic acid methylamide] | ≤ 500 |
| CNC(=O)c1c(-c2ccc(F)cc2)oc2cc(CN3CC(O)=C(C#N)C3=O)c(OC)cc12 [Example 431, 6-(3-Cyano-4-hydroxy-2-oxo-2,5-dihydro-pyrrol-1-ylmethyl)-2-(4-fluoro-phenyl)-5-methoxy-benzofuran-3-carboxylic acid methylamide] | ≤ 500 |
| CNC(=O)c1c(-c2ccc(F)cc2)oc2cc(-c3c(C)noc3C)c(OCCN3CCOCC3)cc12 [Example 433, 6-(3,5-Dimethyl-isoxazol-4-yl)-2-(4-fluoro-phenyl)-5-(2-morpholin-4-yl-ethoxy)-benzofuran-3-carboxylic acid methylamide] | ≤ 500 |

Same assay, conditions: purified His-tagged NS5B (BB7), carboxyl terminal 21 amino acids removed; read-out: HCV pol-BB7 IC50

| Structure (SMILES) | IC50 [nM] |
| --- | --- |
| CNC(=O)c1c(-c2ccccc2)oc2ccc(OC(F)(F)F)cc12 [Example 2, 2-Phenyl-5-trifluoromethoxy-benzofuran-3-carboxylic acid methylamide] | 500 to 5000 |
| CNC(=O)c1c(-c2ccc(F)cc2)oc2ccc(OCC(F)(F)F)cc12 [Example 64, 2-(4-Fluoro-phenyl)-5-(2,2,2-trifluoro-ethoxy)-benzofuran-3-carboxylic acid methylamide] | 500 to 5000 |
